From patent US20180327402A1, “TRIAZOLOPYRIDINE COMPOUNDS AND METHODS OF USE THEREOF” (Genentech, Inc., priority 2015, published 2018)

Assays:
[1] = target: T1, isolated recombinant JAK2 kinase domain (Homo sapiens, UniProt O60674); experiment: JAK enzyme assay (Caliper LabChip), JAK2; type: biochemical; details: 0.2 nM JAK2, ATP 25 μM, 22° C., 30 minutes; Morrison tight binding model
T1 construct: isolated recombinant JAK1 and JAK2 kinase domain
Method: (§1) The activity of the isolated recombinant JAK1 and JAK2 kinase domain was measured by monitoring phosphorylation of a peptide derived from JAK3 (Val-Ala-Leu-Val-Asp-Gly-Tyr-Phe-Arg-Leu-Thr-Thr, fluorescently labeled on the N-terminus with 5-carboxyfluorescein) using the Caliper LabChip® technology (Caliper Life Sciences, Hopkinton, Mass.). To determine inhibition constants (Ki), compounds were diluted serially in DMSO and added to 50 μL kinase reactions containing purified enzyme (1.5 nM JAK1, or 0.2 nM JAK2), 100 mM HEPES buffer (pH 7.2), 0.015% Brij-35, 1.5 μM peptide substrate, ATP (25 μM), 10 mM MgCl2, 4 mM DTT at a final DMSO concentration of 2%. Reactions were incubated at 22° C. in 384-well polypropylene microtiter plates for 30 minutes and then stopped by addition of 25 μL of an EDTA containing solution (100 mM HEPES buffer (pH 7.2), 0.015% Brij-35, 150 mM EDTA), resulting in a final EDTA concentration of 50 mM. After termination of the kinase reaction, the proportion of phosphorylated product was determined as a fraction of total peptide substrate using the Caliper LabChip® 3000 according to the manufacturer's specifications. Ki values were then determined using the Morrison tight binding model (Morrison, J. F., Biochim. Biophys. Acta. 185:269-296 (1969); William, J. W. and Morrison, J. F., Meth. Enzymol., 63:437-467 (1979)) modified for ATP-competitive inhibition [Ki ═Ki,app/(1+[ATP]/Km,app)].

[2] = target: T2, isolated recombinant JAK1 kinase domain (Homo sapiens, UniProt P23458); experiment: JAK enzyme assay (Caliper LabChip), JAK1; type: biochemical; details: 1.5 nM JAK1, ATP 25 μM, 22° C., 30 minutes; Morrison tight binding model
T2 construct: isolated recombinant JAK1 and JAK2 kinase domain
T2 sequence (P23458 875-1153 limits assumed): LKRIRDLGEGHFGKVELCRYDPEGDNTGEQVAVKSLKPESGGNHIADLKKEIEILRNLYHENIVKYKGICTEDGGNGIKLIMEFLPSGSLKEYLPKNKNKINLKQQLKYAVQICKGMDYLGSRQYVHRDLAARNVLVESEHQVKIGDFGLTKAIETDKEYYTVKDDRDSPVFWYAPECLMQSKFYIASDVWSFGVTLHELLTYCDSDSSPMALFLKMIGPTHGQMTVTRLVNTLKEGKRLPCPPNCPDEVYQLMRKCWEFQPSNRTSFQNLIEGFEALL
Method: as §1

T1 sequence (O60674 849-1124 limits assumed): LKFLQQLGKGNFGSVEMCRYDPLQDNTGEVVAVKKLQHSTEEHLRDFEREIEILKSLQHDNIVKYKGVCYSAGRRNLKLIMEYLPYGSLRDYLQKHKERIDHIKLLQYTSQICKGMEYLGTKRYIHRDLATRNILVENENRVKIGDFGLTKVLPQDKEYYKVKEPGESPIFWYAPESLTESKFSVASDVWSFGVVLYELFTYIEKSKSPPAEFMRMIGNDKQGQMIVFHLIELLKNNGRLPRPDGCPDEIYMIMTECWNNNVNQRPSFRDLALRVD

Compound	Ki [1] [nM]	Ki [2] [nM]
Cn1cc(Nc2nc3c(N4CCC(CN)(c5ccc(Cl)cc5)CC4)cccn3n2)cn1 [D, 8-[4-(aminomethyl)-4-(4-chlorophenyl)-1-piperidyl]-N-(1-methylpyrazol-4-yl)-[1,2,4]triazolo[1,5-a]pyridin-2-amine]	0.94	0.55
COC(=O)CN1CCC2(CC1)CN(C(=O)N1CC=C(c3cccn4nc(Nc5cnn(C)c5)nc34)CC1)C2 [E, methyl 2-[2-[4-[2-[(1-methylpyrazol-4-yl)amino]-[1,2,4]triazolo[1,5-a]pyridin-8-yl]-3,6-dihydro-2H-pyridine-1-carbonyl]-2,7-diazaspiro[3.5]nonan-7-yl]acetate]	20	38
Cn1cc(Nc2nc3c(N4CCC(CNCC(F)(F)F)(c5ccc(Cl)cc5)CC4)cccn3n2)cn1 [G, 8-[4-(4-chlorophenyl)-4-[(2,2,2-trifluoroethylamino)methyl]-1-piperidyl]-N-(1-methylpyrazol-4-yl)-[1,2,4]triazolo[1,5-a]pyridin-2-amine]	2.9	10
Cn1cc(Nc2nc3c(N4CCC(CCN5CCOCC5)(c5ccc(Cl)cc5)CC4)cccn3n2)cn1 [H, 8-[4-(4-chlorophenyl)-4-(2-morpholinoethyl)-1-piperidyl]-N-(1-methylpyrazol-4-yl)-[1,2,4]triazolo[1,5-a]pyridin-2-amine]	3.5	11
CN(C)C(=O)CN1CCC2(CC1)CN(C(=O)N1CC=C(c3cccn4nc(Nc5cnn(C)c5)nc34)CC1)C2 [I, N,N-dimethyl-2-[2-[4-[2-[(1-methylpyrazol-4-yl)amino]-[1,2,4]triazolo[1,5-a]pyridin-8-yl]-3,6-dihydro-2H-pyridine-1-carbonyl]-2,7-diazaspiro[3.5]nonan-7-yl]acetamide]	86	190
CSc1ccc(C2(CC#N)CCN(c3cccn4nc(Nc5cnn(CCN6CCC(N7CCOCC7)CC6)c5)nc34)CC2)cc1 [K, 2-[4-(4-methylsulfanylphenyl)-1-[2-[[1-[2-(4-morpholino-1-piperidyl)ethyl]pyrazol-4-yl]amino]-[1,2,4]triazolo[1,5-a]pyridin-8-yl]-4-piperidyl]acetonitrile]	1.1	2.7
CSc1ccc(C2(CC#N)CCN(c3cccn4nc(Nc5cnn(CCN6CCN(C7CCOCC7)CC6)c5)nc34)CC2)cc1 [M, 2-[4-(4-methylsulfanylphenyl)-1-[2-[[1-[2-(4-tetrahydropyran-4-ylpiperazin-1-yl)ethyl]pyrazol-4-yl]amino]-[1,2,4]triazolo[1,5-a]pyridin-8-yl]-4-piperidyl]acetonitrile]	0.96	3.3
CSc1ccc(C2(CC#N)CCN(c3cccn4nc(Nc5cnn(CCN(C)C)c5)nc34)CC2)cc1 [N, 2-[1-[2-[[1-[2-(dimethylamino)ethyl]pyrazol-4-yl]amino]-[1,2,4]triazolo[1,5-a]pyridin-8-yl]-4-(4-methylsulfanylphenyl)-4-piperidyl]acetonitrile]	1.2	5.1
CSc1ccc(C2(CC#N)CCN(c3cccn4nc(Nc5cnn(CCN6CCN(C)C(=O)C6)c5)nc34)CC2)cc1 [O, 2-[1-[2-[[1-[2-(4-methyl-3-oxo-piperazin-1-yl)ethyl]pyrazol-4-yl]amino]-[1,2,4]triazolo[1,5-a]pyridin-8-yl]-4-(4-methylsulfanylphenyl)-4-piperidyl]acetonitrile]	1	4.6
CSc1ccc(C2(CC#N)CCN(c3cccn4nc(Nc5cnn(CCNC6COC6)c5)nc34)CC2)cc1 [P, 2-[4-(4-methylsulfanylphenyl)-1-[2-[[1-[2-(oxetan-3-ylamino)ethyl]pyrazol-4-yl]amino]-[1,2,4]triazolo[1,5-a]pyridin-8-yl]-4-piperidyl]acetonitrile]	0.72	2.4
CSc1ccc(C2(CC#N)CCN(c3cccn4nc(Nc5cnn(CCN6CCN(C(=O)N(C)C)CC6)c5)nc34)CC2)cc1 [Q, 4-[2-[4-[[8-[4-(cyanomethyl)-4-(4-methylsulfanylphenyl)-1-piperidyl]-[1,2,4]triazolo[1,5-a]pyridin-2-yl]amino]pyrazol-1-yl]ethyl]-N,N-dimethyl-piperazine-1-carboxamide]	0.67	2.9
CSc1ccc(C2(CO)CCN(c3cccn4nc(Nc5cnn(CCN)c5)nc34)CC2)cc1 [R, [1-[2-[[1-(2-aminoethyl)pyrazol-4-yl]amino]-[1,2,4]triazolo[1,5-a]pyridin-8-yl]-4-(4-methylsulfanylphenyl)-4-piperidyl]methanol]	1.4	2.9

Stronger by Ki [1], values ahead:

Ki [1] [nM]	Ki [2] [nM]	Compound
0.65	2.6	CSc1ccc(C2(CC#N)CCN(c3cccn4nc(Nc5cnn(CCN6CCN(C(C)=O)CC6)c5)nc34)CC2)cc1 [L, 2-[1-[2-[[1-[2-(4-acetylpiperazin-1-yl)ethyl]pyrazol-4-yl]amino]-[1,2,4]triazolo[1,5-a]pyridin-8-yl]-4-(4-methylsulfanylphenyl)-4-piperidyl]acetonitrile]
0.57	0.9	CCc1cnn(C2(CC#N)CN(c3cccn4nc(Nc5cnn(Cc6cn(C7CCN(C8COC8)CC7)nn6)c5)nc34)C2)c1 [S, 2-[3-(4-ethylpyrazol-1-yl)-1-[1-[[1-[[1-[1-(oxetan-3-yl)-4-piperidyl]triazol-4-yl]methyl]pyrazol-4-yl]amino]-[1,2,4]triazolo[1,5-a]pyridin-8-yl]azetidin-3-yl]acetonitrile]
0.53	1.4	COC(=O)CNCC1(c2ccc(Cl)cc2)CCN(c2cccn3nc(Nc4cnn(C)c4)nc23)CC1 [F, formic acid; methyl 2-[[4-(4-chlorophenyl)-1-[2-[(1-methylpyrazol-4-yl)amino]-[1,2,4]triazolo[1,5-a]pyridin-8-yl]-4-piperidyl]methylamino]]
0.47	1.7	CSc1ccc(C2(CO)CCN(c3cccn4nc(Nc5cnn(CCN6CCC(N7CCOCC7)CC6)c5)nc34)CC2)cc1 [J, [4-(4-methylsulfanylphenyl)-1-[2-[[1-[2-(4-morpholino-1-piperidyl)ethyl]pyrazol-4-yl]amino]-[1,2,4]triazolo[1,5-a]pyridin-8-yl]-4-piperidyl]methanol]
0.28	0.74	CNCCCn1cc(Nc2nc3c(-c4ccc(OCc5ccc(OCCOC)nc5)cc4)cccn3n2)cn1 [Compound 3-5, 8-[4-[[6-(2-methoxyethoxy)-3-pyridyl]methoxy]phenyl]-N-[1-[3-(methylamino)propyl]pyrazol-4-yl]-[1,2,4]triazolo[1,5-a]pyridin-2-amine]
